{"source": "patent EP2738172A1", "about": "(Almirall, S.A., priority 2012, dated 2014)", "key": {"[1]": {"system": "Jurkat E6-1 cells", "experiment": "fluorescent calcium flux assay (FLIPR, thapsigargin store depletion)", "format": "cell-based", "conditions": "Homo sapiens, Thapsigargin 10µM, 2mM final calcium concentration, FLIPR Calcium 5 dye, read-out: Ca^2+ flux IC50", "method": "fluorescent calcium flux assay\nJurkat E6-1 cells were obtained from ATCC (number TIB-152™) and maintained as ATCC recommend; in medium RPMI-1640 with 10% FBS at 37°C and 5% CO2.\nBefore the assay, Jurkat cells were grown at a density of 2 millions cells/ml in cell culture media (RPMI with 10% FBS) in a T-175 flask at 37°C and 5% CO2. The day of the assay, cells were harvested by centrifugation (5 minutes at 1500 rpm) and the pellet were suspended in Ca^2+ free assay buffer (HBSS w/o Ca^2+ and Mg^2+, 20mM Hepes and 1 mM MgCl2, pH 7.4) at a density of 5 million cells/ml.\nCalcium depletion was initiated by the addition to the cell suspension of Thapsigarguin at a final assay concentration of 10µM. 20µl of the cellular suspension containing Thapsigargin (100.000 cells/well) were plated into 384 well plates (corning 3711) and incubated at RT for 15 minutes.\nTest compounds were diluted in DMSO 100% to get a 10^-2M stock solution and serial dilutions 1/3 were performed in the same solvent. Then, 20µl of test compounds, diluted 75 times in Ca^2+ free assay buffer, were added to the cells and incubated at RT for 1h.\nOnce this incubation was completed, 5 µl of dye solution (FLIPR Calcium 5 Express Kit, Molecular Devices), prepared as Molecular Devices recommend, were added into the assay plates followed by an extra incubation period of 1 hour at room temperature. After the second incubation period, assay plates were placed into the FLIPR Tetra from Molecular Devices. Fluorescence was measured at a wavelength of 525nm after the dye excitation at 485nm. The initial baseline was measured during 20 seconds, and then 8µl of a 13mM Calcium solution in assay buffer were added (2mM final calcium concentration) except for basal wells, where assay buffer without calcium was added. At this time, changes in the cellular fluorescent were measured for an extra 80 seconds.\nPeak and base line were taken for the calculation of the ratio (Peak/Base Line). Total, basal and compound well ratio values were used to calculate %Inhibition."}, "[2]": {"system": "Jurkat E6-1 cells", "experiment": "In vitro assay of cytokine release from T cells (IL-2 ELISA)", "format": "cell-based", "conditions": "Homo sapiens, Jurkat cells stimulated with PHA 20 µg/ml, 20 hours, secreted IL-2 by ELISA, read-out: Jurkat IL2 IC50", "method": "In vitro assay of cytokine release from T cells\nJurkat E6-1 cells were obtained from American Type Culture Collection (ATCC) and maintained in complete medium with 10% fetal bovine serum (FBS) at 37°C/5%CO2. Cells were plated in 100 µL of Dubelcco's Modified Eagle Medium (DMEM) with 1% FBS in a 96 well plate at a density of 1x10^6 cells/well and 50 µL of test compound was added. Cells were then stimulated by the addition of 50 µL of phytohemagglutinin (PHA) (final concentration 20 µg/ml) and incubated at 37°C/5%CO2 for 20 hours. On the following day, the supernatants were collected and assayed for IL-2 levels by ELISA according to the manufacturer's protocols. The IC50 value was calculated as the concentration at which 50% of secreted IL-2 in vehicle is inhibited."}}}
{"compound": "Cn1nc(C(F)(F)F)cc1-c1cc2cc(-c3c(F)cccc3Cl)[nH]c2cn1", "values": [{"measurement": "IC50", "setting": "[1]", "result": 640, "unit": "nM"}, {"measurement": "IC50", "setting": "[2]", "result": 860, "unit": "nM"}]}
{"compound": "COc1cc(C)c(-c2cnc3[nH]c(-c4c(F)cccc4Cl)cc3c2)cn1", "note": "[Ex. 1, 2-(2-Chloro-6-fluorophenyl)-5-(6-methoxy-4-methylpyridin-3-yl)-1H-pyrrolo[2,3-b]pyridine]", "values": [{"measurement": "IC50", "setting": "[1]", "result": 71, "unit": "nM"}, {"measurement": "IC50", "setting": "[2]", "result": 40, "unit": "nM"}]}
{"compound": "COc1cc(C)c(-c2cnc3[nH]c(-c4c(F)cccc4Cl)cc3n2)cn1", "note": "[Ex. 2, 6-(2-Chloro-6-fluorophenyl)-2-(6-methoxy-4-methylpyridin-3-yl)-5H-pyrrolo[2,3-b]pyrazine]", "values": [{"measurement": "IC50", "setting": "[1]", "result": 357, "unit": "nM"}, {"measurement": "IC50", "setting": "[2]", "result": 100, "unit": "nM"}]}
{"compound": "Cc1cc(S(=O)(=O)N(C)C)ccc1-c1cnc2[nH]c(-c3c(F)cccc3Cl)cc2n1", "note": "[Ex. 8, 4-[6-(2-chloro-6-fluorophenyl)-5H-pyrrolo[2,3-b]pyrazin-2-yl]-N,N,3-trimethylbenzenesulfonamide]", "values": [{"measurement": "IC50", "setting": "[1]", "result": 800, "unit": "nM"}, {"measurement": "IC50", "setting": "[2]", "result": 41, "unit": "nM"}]}
{"compound": "COc1cc(C)c(-c2cnc3[nH]c(-c4c(F)cc(OCCCO)cc4F)cc3c2)cn1", "note": "[Ex. 9, 3-{3,5-difluoro-4-[5-(6-methoxy-4-methylpyridin-3-yl)-1H-pyrrolo[2,3-b]pyridin-2-yl]phenoxy}propan-1-ol]", "values": [{"measurement": "IC50", "setting": "[1]", "result": 370, "unit": "nM"}, {"measurement": "IC50", "setting": "[2]", "result": 210, "unit": "nM"}]}
{"compound": "Fc1cccc(Cl)c1-c1cc2cc(-c3cc4c(cc3Cl)OC(F)(F)O4)cnc2[nH]1", "note": "[Ex. 13, 5-(6-Chloro-2,2-difluoro-1,3-benzodioxol-5-yl)-2-(2-chloro-6-fluorophenyl)-1H-pyrrolo[2,3-b]pyridine]", "values": [{"measurement": "IC50", "setting": "[1]", "result": 120, "unit": "nM"}, {"measurement": "IC50", "setting": "[2]", "result": 56, "unit": "nM"}]}
{"compound": "Cn1nc(C(F)(F)F)cc1-c1ccc2[nH]c(-c3c(F)cccc3Cl)cc2n1", "note": "[Ex. 14, 2-(2-Chloro-6-fluorophenyl)-5-[1-methyl-3-(trifluoromethyl)-1H-pyrazol-5-yl]-1H-pyrrolo[3,2-b]pyridine]", "values": [{"measurement": "IC50", "setting": "[1]", "result": 53, "unit": "nM"}, {"measurement": "IC50", "setting": "[2]", "result": 36, "unit": "nM"}]}
{"compound": "Cn1nc(C(F)(F)F)cc1-c1ccc2[nH]c(C3CCCCC3)cc2n1", "note": "[Ex. 16, 2-Cyclohexyl-5-[1-methyl-3-(trifluoromethyl)-1H-pyrazol-5-yl]-1H-pyrrolo[3,2-b]pyridine]", "values": [{"measurement": "IC50", "setting": "[1]", "result": 390, "unit": "nM"}, {"measurement": "IC50", "setting": "[2]", "result": 130, "unit": "nM"}]}
{"compound": "FC(F)Oc1cc(C(F)(F)F)nn1-c1ccc2[nH]c(C3CCCCC3)cc2n1", "note": "[Ex. 30, 2-Cyclohexyl-5-[5-(difluoromethoxy)-3-(trifluoromethyl)-1H-pyrazol-1-yl]-1H-pyrrolo[3,2-b]pyridine]", "values": [{"measurement": "IC50", "setting": "[1]", "result": 360, "unit": "nM"}, {"measurement": "IC50", "setting": "[2]", "result": 110, "unit": "nM"}]}
{"compound": "CNS(=O)(=O)c1ccc(-c2cnc3[nH]c(-c4c(F)cccc4Cl)cc3n2)c(C)c1", "note": "[Ex. 69, 4-(6-(2-Chloro-6-fluorophenyl)-5H-pyrrolo[2,3-b]pyrazin-2-yl)-N,3-dimethylbenzenesulfonamide]", "values": [{"measurement": "IC50", "setting": "[1]", "result": 580, "unit": "nM"}, {"measurement": "IC50", "setting": "[2]", "result": 114, "unit": "nM"}]}
{"compound": "Cc1nc2cc(Cl)c(-c3cnc4[nH]c(-c5c(F)cccc5Cl)cc4c3)cc2o1", "note": "[Ex. 73, 5-Chloro-6-(2-(2-chloro-6-fluorophenyl)-1H-pyrrolo[2,3-b]pyridin-5-yl)-2-methylbenzo[d]oxazole]", "values": [{"measurement": "IC50", "setting": "[1]", "result": 88, "unit": "nM"}, {"measurement": "IC50", "setting": "[2]", "result": 117, "unit": "nM"}]}
